Common to all, as to assay type: cell-based
In one assay the test system is Cordana musae. The experiment in a line: in vitro-Test with Cordana musae. How it is done:
(§1) Wells of 96-well microtiter plates are filled with 30 μl of a preparation of test compound or compound combination in methanol+emulsifier alkylaryl-polyglycol-ether. Thereafter, the solvent is evaporated in a hood. At the next step, into each well 200 μl of liquid growth medium is given, that has been amended with an appropriate concentration of spores or mycelium suspension of the test fungus.
(§2) With the aid of a photometer the extinction in all wells is measured at the wavelength of 600 nm.
(§3) The microtiter plates are incubated for 3 to 7 days at 20° C. and 85% relative humidity. After the incubation inhibition of growth is determined photometrically. Efficacy is calculated in relation to the untreated control, 0% efficacy means fungal growth as high as in untreated control while 100% efficacy means no fungal growth is measured.

Another assay deals with Diaporthe citri. The experiment in a line: in vitro-Test with Diaporthe citri. How it is done:
as §1, §2, §3

The subject of the next assay is Alternaria alternata. As to the kind of experiment: in vitro-Test with Alternaria alternata. Here is the method: as §1, §2, §3
The subject of a further assay is Botrytis cinerea. The experiment in a line: in vitro-Test with Botrytis cinerea. How it is done:
as §1, §2, §3

The next assay concerns Cercospora beticola. The experiment in a line: in vitro-Test with Cercospora beticola. How it is done:
as §1, §2, §3

In a further assay the test system is Fusarium culmorum. As to the kind of experiment: in vitro-Test with Fusarium culmorum. Here is the method:
as §1, §2, §3

A further assay has as its system Colletotrichum coccodes. As to the kind of experiment: in vitro-Test with Colletotrichum coccodes. How it is done: as §1, §2, §3
Another assay relates to Parastagonospora nodorum. The experiment in a line: in vitro-Test with Parastagonospora nodorum. Here is the method: as §1, §2, §3
Assay [1] concerns Ustilago segetum var. avenae. As to the kind of experiment: in vitro-Test with Ustilago segetum var. avenae. Here is the method:
as §1, §2, §3

In patent publication US20230200391A1, “ACTIVE COMPOUND COMBINATIONS AND FUNGICIDE COMPOSITIONS COMPRISING THOSE” (priority 2020, published 2023) one finds efficacy % data, which are given here for eleven compounds.

Several values for one entry are separate records, joined by “and”; a condition that tells them apart may be missing. Equal entries are not always repeated.

In the case of inpyrfluxam [(2.027)], the efficacy % in the assay with Cordana musae (1 ppm) is 3%; with Diaporthe citri (1 ppm) it was 86% and 84%.
On to `CC(C)c1ccc(Cl)cc1CN(C(=O)c1c(C(F)F)nn(C)c1F)C1CC1` [(2.038), isoflucypram], for which the efficacy % in the assay with Alternaria alternata (1 ppm) amounted to 76%; in the assay on Botrytis cinerea (0.2 ppm), 74%; with Botrytis cinerea (1 ppm) it was 86%; in the assay with Cercospora beticola (0.04 ppm), 0%; with Fusarium culmorum (0.04 ppm) it was 0%.
As to `COC(=O)C(O)(Cn1cncn1)c1ccc(Oc2ccc(Cl)cc2)cc1Cl` (stereo not drawn) [(I-1), Methyl 2-[2-chloro-4-(4-chlorophenoxy)phenyl]-2-hydroxy-3-(1,2,4-triazol-1-yl)propanoate], the efficacy % is reported as 3% with Botrytis cinerea (0.02 ppm); 0% in the assay with Botrytis cinerea (0.2 ppm); 27% with Botrytis cinerea (0.5 ppm); 100% with Cercospora beticola (0.5 ppm); 100% in the assay with Cercospora beticola (2.5 ppm); 0% in the assay on Colletotrichum coccodes (0.1 ppm). The efficacy % in the assay on Colletotrichum coccodes (0.5 ppm) turned out to be 32%; in the assay with Cordana musae (0.02 ppm) it was 0%; in the assay with Cordana musae (0.1 ppm) it was 5%; in the assay on Cordana musae (0.5 ppm), 15%; with Cordana musae (2.5 ppm) it was 99%; with Diaporthe citri (0.1 ppm), 0%. The efficacy % in the assay on Diaporthe citri (0.5 ppm) was 96%; in the assay with Fusarium culmorum (0.02 ppm), 14% and 10% and 4%; with Fusarium culmorum (0.5 ppm) it was 0%; in the assay on Parastagonospora nodorum (0.1 ppm) it was 87%; in the assay on Parastagonospora nodorum (0.5 ppm), 98%; in the assay with Parastagonospora nodorum (2.5 ppm), 96%. Further, the efficacy % in the assay on Parastagonospora nodorum (single compound at 0.02 ppm) turned out to be 0%; in assay [1] (0.02 ppm), 9%; in [1] (0.5 ppm), 96%; in assay [1] (2.5 ppm), 98%.
As for mancozeb [(5.013)], the efficacy % with Alternaria alternata (0.16 ppm) is 0%; with Alternaria alternata (0.8 ppm) it was 0% and 1%; in the assay on Alternaria alternata (20 ppm) it was 74%; in the assay on Botrytis cinerea (0.16 ppm), 4%; in the assay with Botrytis cinerea (0.8 ppm) it was 6%; in the assay on Botrytis cinerea (4 ppm), 6%. Besides, the efficacy % was 98% and 100% in the assay with Cercospora beticola (20 ppm); 24% with Colletotrichum coccodes (4 ppm); 0% in the assay on Cordana musae (0.16 ppm); 0% in the assay on Cordana musae (0.8 ppm); 12% in the assay on Cordana musae (4 ppm); 0% in the assay with Diaporthe citri (0.8 ppm). Further, the efficacy % worked out at 96% in the assay with Diaporthe citri (20 ppm); 0% in the assay on Fusarium culmorum (0.16 ppm); 0% in the assay with Fusarium culmorum (0.8 ppm); 0% in the assay on Fusarium culmorum (4 ppm); 0% in the assay with Parastagonospora nodorum (single compound at 0.16 ppm).
For the compound `CON=C(C(=O)OC)c1ccccc1CON=C(C)c1cccc(C(F)(F)F)c1` [(3.020), trifloxystrobin], the efficacy % in the assay with Alternaria alternata (0.008 ppm) is recorded as 22%; in the assay with Alternaria alternata (0.04 ppm) it was 62%; in the assay on Botrytis cinerea (0.008 ppm), 5%; in the assay on Botrytis cinerea (0.04 ppm) it was 17%; in the assay with Botrytis cinerea (0.2 ppm), 13%; in the assay with Colletotrichum coccodes (0.008 ppm), 7%. Further, the efficacy % with Fusarium culmorum (0.008 ppm) stood at 0%; in the assay on Fusarium culmorum (0.04 ppm), 19%; with Parastagonospora nodorum (single compound at 0.008 ppm), 32%; in the assay with Parastagonospora nodorum (single compound at 0.04 ppm), 73%; in the assay on Parastagonospora nodorum (single compound at 1 ppm), 97%.
`Cc1cccc(-n2nnn(C)c2=O)c1COc1ccn(-c2ccc(Cl)cc2)n1` [(3.030), metyltetraprole]: the efficacy % with Botrytis cinerea (0.008 ppm) was determined as 11%; in the assay on Botrytis cinerea (0.4 ppm), 34%; with Botrytis cinerea (2 ppm) it was 41%; with Botrytis cinerea (10 ppm) it was 81%; in the assay with Colletotrichum coccodes (0.08 ppm) it was 25%; with Colletotrichum coccodes (0.4 ppm) it was 73%. In addition, the efficacy % in the assay on Colletotrichum coccodes (10 ppm) turned out to be 100%; with Cordana musae (0.08 ppm), 44%; in the assay on Cordana musae (0.4 ppm), 70%; in the assay with Cordana musae (2 ppm), 78%; in the assay with Diaporthe citri (2 ppm), 95%; in the assay on Diaporthe citri (10 ppm) it was 99%. Moreover, the efficacy % in assay [1] (10 ppm) is reported as 34%.
In the case of `CO/N=C(/C1=NOCCO1)c1ccccc1Oc1ncnc(Oc2ccccc2Cl)c1F` [(3.012), fluoxastrobin], the efficacy % with Alternaria alternata (0.4 ppm) stood at 87%; in the assay with Colletotrichum coccodes (2 ppm), 85%; in the assay on Cordana musae (2 ppm), 74%; with Cordana musae (10 ppm), 81%; in the assay on Fusarium culmorum (0.4 ppm), 26%; in the assay on Fusarium culmorum (2 ppm) it was 34%. Besides, the efficacy % in the assay on Fusarium culmorum (10 ppm) was 47% and 54%.
As to `O=C(NCCc1ncc(C(F)(F)F)cc1Cl)c1ccccc1C(F)(F)F` [(2.005), fluopyram], the efficacy % is recorded as 67% in the assay on Alternaria alternata (0.16 ppm); 89% in the assay with Alternaria alternata (20 ppm); 48% with Botrytis cinerea (0.16 ppm); 77% in the assay on Botrytis cinerea (0.8 ppm); 97% in the assay on Botrytis cinerea (20 ppm); 25% in the assay on Cercospora beticola (0.16 ppm). Also, the efficacy % with Cercospora beticola (0.8 ppm) is 0%; in the assay with Cercospora beticola (4 ppm) it was 11%; in the assay with Parastagonospora nodorum (4 ppm), 49%; in the assay with Parastagonospora nodorum (20 ppm), 86%.
For the compound `Cc1nn(C)c(F)c1C(=O)Nc1ccccc1C(C)CC(C)C` (stereo not drawn) [(2.017), penflufen], the efficacy % in the assay on Alternaria alternata (0.04 ppm) is 10%; in the assay with Alternaria alternata (1 ppm), 65%; with Parastagonospora nodorum (0.2 ppm), 0%; with Parastagonospora nodorum (5 ppm), 42%; with Parastagonospora nodorum (single compound at 0.04 ppm), 0%; with Parastagonospora nodorum (single compound at 0.2 ppm), 4%. Also, the efficacy % with Parastagonospora nodorum (single compound at 1 ppm) was determined as 17%; in the assay on Parastagonospora nodorum (single compound at 5 ppm), 48%.
On to `O=C(NC1CCC1c1ccc(Cl)cc1Cl)c1cccnc1C(F)(F)F` (stereo in doubt) [(2.060), cyclobutrifluram], for which the efficacy % in the assay on Alternaria alternata (0.04 ppm) stood at 80%; in the assay on Alternaria alternata (5 ppm), 88%; with Botrytis cinerea (0.04 ppm), 49%; with Botrytis cinerea (0.2 ppm), 77%; in the assay on Botrytis cinerea (1 ppm), 92%; in the assay with Colletotrichum coccodes (0.04 ppm), 0%. The efficacy % in the assay on Colletotrichum coccodes (0.2 ppm) stood at 0%; with Colletotrichum coccodes (1 ppm), 0%; with Colletotrichum coccodes (5 ppm), 12%; in the assay with Cordana musae (0.04 ppm) it was 0%; in the assay with Cordana musae (0.2 ppm) it was 0%; in the assay with Fusarium culmorum (0.04 ppm), 47%. The efficacy % with Fusarium culmorum (5 ppm) is recorded as 56%; in the assay with Parastagonospora nodorum (5 ppm) it was 0%; with Parastagonospora nodorum (single compound at 0.04 ppm), 5%; in the assay with Parastagonospora nodorum (single compound at 0.2 ppm) it was 13%; with Parastagonospora nodorum (single compound at 5 ppm) it was 98%.
With `OC(Cc1ccccc1Cl)(Cn1nc[nH]c1=S)C1(Cl)CC1` (stereo not drawn) [(1.018), prothioconazole], the efficacy % turned out to be 26% in the assay with Alternaria alternata (0.004 ppm); 13% in the assay on Alternaria alternata (0.02 ppm); 37% with Alternaria alternata (0.1 ppm); 100% in the assay with Cercospora beticola (0.1 ppm); 96% with Cercospora beticola (0.5 ppm); 0% in the assay on Colletotrichum coccodes (0.004 ppm). For the same compound, the efficacy % was 3% and 0% and 2% with Cordana musae (0.004 ppm); 99% in the assay on Cordana musae (0.5 ppm); 14% in the assay on Diaporthe citri (0.004 ppm); 98% in the assay with Diaporthe citri (0.1 ppm); 99% in the assay with Diaporthe citri (0.5 ppm); 3% in the assay with Fusarium culmorum (0.004 ppm). The efficacy % with Fusarium culmorum (0.02 ppm) stood at 0%; with Parastagonospora nodorum (0.02 ppm), 83%; with Parastagonospora nodorum (0.1 ppm) it was 97%; with Parastagonospora nodorum (0.5 ppm), 97%; with Parastagonospora nodorum (single compound at 0.004 ppm) it was 2%; in [1] (0.004 ppm), 45%. Moreover, the efficacy % in [1] (0.1 ppm) and in assay [1] (0.5 ppm) was 99% throughout.
